Measurements taken from the CheMixHub viscosity set.
Values joined by “and” are separate entries in the source; they are usually repeats but may differ in a detail not shown here. Equal values may be shown once.

Assay: xn = mol fraction of the nth substance listed

CCCCCCC + CCCO
Conditions	viscosity
298.15 K, 101.33 kPa, x2 = 0.7478	0.999 mPa·s
298.15 K, 101.33 kPa, x2 = 0.7849	1.154 mPa·s
298.15 K, 101.33 kPa, x2 = 0.8202	1.187 mPa·s
298.15 K, 101.33 kPa, x2 = 0.879	1.447 mPa·s
298.15 K, 101.33 kPa, x2 = 0.9458	1.659 mPa·s
298.15 K, 101.33 kPa, x2 = 0.967	1.811 mPa·s
303.15 K, 101 kPa, x1 = 0.0164	1.609 mPa·s
303.15 K, 101 kPa, x1 = 0.102	1.319 mPa·s
303.15 K, 101 kPa, x1 = 0.2018	1.047 mPa·s
303.15 K, 101 kPa, x1 = 0.299	0.8669 mPa·s
303.15 K, 101 kPa, x1 = 0.4005	0.7025 mPa·s
303.15 K, 101 kPa, x1 = 0.5017	0.5949 mPa·s
303.15 K, 101 kPa, x1 = 0.6033	0.5056 mPa·s
303.15 K, 101 kPa, x1 = 0.7025	0.4543 mPa·s
303.15 K, 101 kPa, x1 = 0.801	0.4254 mPa·s
303.15 K, 101 kPa, x1 = 0.8918	0.3943 mPa·s
303.15 K, 101 kPa, x2 = 0.0637	0.364 mPa·s and 0.344 mPa·s
303.15 K, 101 kPa, x2 = 0.1192	0.374 mPa·s
303.15 K, 101 kPa, x2 = 0.2374	0.415 mPa·s
303.15 K, 101 kPa, x2 = 0.3198	0.444 mPa·s
303.15 K, 101 kPa, x2 = 0.4121	0.496 mPa·s
303.15 K, 101 kPa, x2 = 0.5026	0.569 mPa·s
303.15 K, 101 kPa, x2 = 0.6029	0.674 mPa·s
303.15 K, 101 kPa, x2 = 0.6539	0.742 mPa·s
303.15 K, 101 kPa, x2 = 0.6876	0.785 mPa·s
303.15 K, 101 kPa, x2 = 0.7445	0.889 mPa·s
303.15 K, 101 kPa, x2 = 0.7867	0.975 mPa·s
303.15 K, 101 kPa, x2 = 0.8298	1.096 mPa·s
303.15 K, 101 kPa, x2 = 0.884	1.23 mPa·s
303.15 K, 101 kPa, x2 = 0.9695	1.544 mPa·s
308.15 K, 101 kPa, x1 = 0.102	1.189 mPa·s
308.15 K, 101 kPa, x1 = 0.2018	0.9659 mPa·s
308.15 K, 101 kPa, x1 = 0.299	0.7776 mPa·s
308.15 K, 101 kPa, x1 = 0.4005	0.6444 mPa·s
308.15 K, 101 kPa, x1 = 0.5017	0.5454 mPa·s
308.15 K, 101 kPa, x1 = 0.6033	0.4781 mPa·s
308.15 K, 101 kPa, x1 = 0.7025	0.4308 mPa·s
308.15 K, 101 kPa, x1 = 0.801	0.3988 mPa·s
308.15 K, 101 kPa, x1 = 0.8918	0.3783 mPa·s
308.15 K, 101 kPa, x2 = 0.1596	0.36 mPa·s
308.15 K, 101 kPa, x2 = 0.2647	0.399 mPa·s
308.15 K, 101 kPa, x2 = 0.3436	0.435 mPa·s
308.15 K, 101 kPa, x2 = 0.4385	0.489 mPa·s
308.15 K, 101 kPa, x2 = 0.5026	0.532 mPa·s
308.15 K, 101 kPa, x2 = 0.5659	0.584 mPa·s
308.15 K, 101 kPa, x2 = 0.6029	0.619 mPa·s
308.15 K, 101 kPa, x2 = 0.6877	0.728 mPa·s
308.15 K, 101 kPa, x2 = 0.7447	0.817 mPa·s
308.15 K, 101 kPa, x2 = 0.7867	0.909 mPa·s
308.15 K, 101 kPa, x2 = 0.884	1.158 mPa·s
308.15 K, 101 kPa, x2 = 0.9695	1.444 mPa·s
308.15 K, 101.33 kPa, x1 = 0.0127	1.506 mPa·s
308.15 K, 101.33 kPa, x2 = 0.0468	0.3551 mPa·s
308.15 K, 101.33 kPa, x2 = 0.0989	0.36 mPa·s
308.15 K, 101.33 kPa, x2 = 0.2079	0.3821 mPa·s
308.15 K, 101.33 kPa, x2 = 0.2621	0.4018 mPa·s
308.15 K, 101.33 kPa, x2 = 0.362	0.4432 mPa·s
308.15 K, 101.33 kPa, x2 = 0.4569	0.492 mPa·s
308.15 K, 101.33 kPa, x2 = 0.5667	0.5902 mPa·s
308.15 K, 101.33 kPa, x2 = 0.6636	0.7 mPa·s
308.15 K, 101.33 kPa, x2 = 0.7478	0.8319 mPa·s
308.15 K, 101.33 kPa, x2 = 0.8202	0.98 mPa·s
308.15 K, 101.33 kPa, x2 = 0.9458	1.347 mPa·s
